Common to all, as to format: biochemical
In experiment [1] the target is T1, CD45 (Homo sapiens, UniProt P08575).
T1 sequence (P08575 26-1306): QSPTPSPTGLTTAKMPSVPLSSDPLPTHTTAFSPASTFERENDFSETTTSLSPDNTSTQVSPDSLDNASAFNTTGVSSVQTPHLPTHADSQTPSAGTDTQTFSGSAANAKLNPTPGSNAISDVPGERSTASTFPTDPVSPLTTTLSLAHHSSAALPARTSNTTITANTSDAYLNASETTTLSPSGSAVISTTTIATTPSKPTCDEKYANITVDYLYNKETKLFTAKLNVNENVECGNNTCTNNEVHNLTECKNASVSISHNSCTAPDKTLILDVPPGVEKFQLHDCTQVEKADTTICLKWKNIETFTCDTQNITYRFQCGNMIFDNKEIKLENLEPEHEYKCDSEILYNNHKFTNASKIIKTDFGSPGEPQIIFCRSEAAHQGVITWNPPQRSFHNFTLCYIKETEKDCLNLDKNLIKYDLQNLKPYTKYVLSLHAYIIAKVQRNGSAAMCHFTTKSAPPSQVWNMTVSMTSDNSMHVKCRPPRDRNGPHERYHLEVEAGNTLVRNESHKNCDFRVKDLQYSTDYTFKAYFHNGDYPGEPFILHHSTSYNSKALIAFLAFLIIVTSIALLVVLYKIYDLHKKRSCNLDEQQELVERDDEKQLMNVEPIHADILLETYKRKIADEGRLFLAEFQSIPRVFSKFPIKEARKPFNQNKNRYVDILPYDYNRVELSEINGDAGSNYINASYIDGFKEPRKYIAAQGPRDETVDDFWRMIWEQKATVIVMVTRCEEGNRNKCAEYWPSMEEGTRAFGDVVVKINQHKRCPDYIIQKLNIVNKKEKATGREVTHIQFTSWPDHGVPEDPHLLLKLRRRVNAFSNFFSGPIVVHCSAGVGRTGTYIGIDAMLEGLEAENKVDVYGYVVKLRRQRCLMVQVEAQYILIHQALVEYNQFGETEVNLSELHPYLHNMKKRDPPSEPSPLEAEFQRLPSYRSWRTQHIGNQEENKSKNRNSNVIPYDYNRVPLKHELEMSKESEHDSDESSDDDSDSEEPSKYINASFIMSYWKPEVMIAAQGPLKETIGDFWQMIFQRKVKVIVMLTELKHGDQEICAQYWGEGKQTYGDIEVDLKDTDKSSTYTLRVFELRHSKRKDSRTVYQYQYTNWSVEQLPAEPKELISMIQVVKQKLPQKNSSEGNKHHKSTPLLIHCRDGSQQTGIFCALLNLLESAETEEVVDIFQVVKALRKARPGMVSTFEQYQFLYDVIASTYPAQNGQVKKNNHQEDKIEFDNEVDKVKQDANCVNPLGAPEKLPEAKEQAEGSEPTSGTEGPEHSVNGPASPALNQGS
Put plainly: PTP-catalyzed hydrolysis of DiFMUP, IC50 determination (CD45). As to the method: (§1) The PTP-catalyzed hydrolysis of 6,8-difluoro-4-methylumbelliferyl phosphate (DiFMUP) in the presence of the test compound is assayed at 30° C. in a 60 μL 96 well format reaction system in 0.15 M Bis-Tris, pH 6.0 assay buffer having an ionic strength of 150 mM (adjusted with NaCl) and containing 1 mM dithiotreitol and 5% DMSO. At various concentrations of the compound, the initial rate at fixed DiFMUP concentration (equal to the corresponding Km value for each PTP) was determined using a FLx800 micro plate reader (Bio-Tek Instruments, Inc.), an excitation wave length of 360 nm and measuring the emission of the fluorescent reaction product 6,8-difluoro-7-hydroxy-4-methylcoumarin (DiFMU) at 460 nm. The nonenzymatic hydrolysis of the substrate was corrected by measuring the control without addition of enzyme. The IC50 value was determined by plotting the relative activity versus inhibitor concentrations and fitting to Equation 1 using the software GraphPad Prism™ (GraphPad Software, Inc.).
(§2) [formula] In this case, Vi, is the reaction velocity when the inhibitor concentration is [I], V0 is the reaction velocity with no inhibitor and IC50=Ki+Ki[S]/Km.

Experiment [2] concerns the target T2, HePTP (Homo sapiens, UniProt P35236).
T2 sequence (P35236 1-360): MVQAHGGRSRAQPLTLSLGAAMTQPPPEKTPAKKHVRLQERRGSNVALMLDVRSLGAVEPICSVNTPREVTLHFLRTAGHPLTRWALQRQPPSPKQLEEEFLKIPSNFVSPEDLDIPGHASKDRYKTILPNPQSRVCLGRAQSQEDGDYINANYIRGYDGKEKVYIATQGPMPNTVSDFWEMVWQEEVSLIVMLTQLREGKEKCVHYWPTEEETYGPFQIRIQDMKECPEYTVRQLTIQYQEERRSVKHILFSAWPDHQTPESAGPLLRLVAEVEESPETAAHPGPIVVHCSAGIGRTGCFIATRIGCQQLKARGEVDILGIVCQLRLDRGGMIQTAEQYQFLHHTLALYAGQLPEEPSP
Put plainly: PTP-catalyzed hydrolysis of DiFMUP, IC50 determination (HePTP). On the procedure: as §1, §2

The target in experiment [3] is T3, Cdc25A (Homo sapiens, UniProt P30304).
T3 sequence (P30304 1-524): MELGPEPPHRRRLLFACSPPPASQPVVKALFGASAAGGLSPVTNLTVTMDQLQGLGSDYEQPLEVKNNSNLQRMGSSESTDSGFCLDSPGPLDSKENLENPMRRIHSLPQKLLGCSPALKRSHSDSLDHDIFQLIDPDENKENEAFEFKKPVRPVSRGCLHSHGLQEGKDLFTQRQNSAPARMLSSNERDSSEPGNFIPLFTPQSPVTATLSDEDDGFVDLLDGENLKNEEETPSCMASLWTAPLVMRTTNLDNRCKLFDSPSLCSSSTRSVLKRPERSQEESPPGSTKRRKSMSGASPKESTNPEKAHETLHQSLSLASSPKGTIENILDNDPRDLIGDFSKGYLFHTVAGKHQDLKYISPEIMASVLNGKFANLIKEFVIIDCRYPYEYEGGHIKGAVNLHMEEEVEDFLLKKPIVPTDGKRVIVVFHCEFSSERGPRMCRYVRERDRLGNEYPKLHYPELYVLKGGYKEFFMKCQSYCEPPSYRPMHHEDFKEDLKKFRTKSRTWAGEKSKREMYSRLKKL
Put plainly: PTP-catalyzed hydrolysis of DiFMUP, IC50 determination (Cdc25A). On the procedure:
as §1, §2

Experiment [4] concerns the target VHR (Homo sapiens, UniProt P51452). Put plainly: PTP-catalyzed hydrolysis of DiFMUP, IC50 determination (VHR). Conditions: DiFMUP at Km, pH 6.0, 30° C. As to the method:
as §1, §2

Where [5] appears, read: Table II, DiFMUP at Km, pH 6.0, 30° C.

The values that follow come from patent US8188080B2 (Sanford-Burnham Medical Research Institute, priority 2007, dated 2012).

Read-outs that look alike come from different tables or passages of the source.

VHR, sequence (P51452 whole entry): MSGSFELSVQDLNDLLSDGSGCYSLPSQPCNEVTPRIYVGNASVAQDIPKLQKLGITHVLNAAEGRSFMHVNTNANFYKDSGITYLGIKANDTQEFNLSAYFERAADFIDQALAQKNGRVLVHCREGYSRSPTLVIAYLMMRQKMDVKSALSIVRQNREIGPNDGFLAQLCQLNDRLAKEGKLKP

In the case of `O=C1/C(=C/c2cn(-c3ccccc3)nc2-c2ccc(OCc3ccccc3)cc2)SC(=S)N1CCS(=O)(=O)O` [Compound 9], the concentration for half-maximal inhibition (IC50) (in general, the concentration that inhibits the measured activity by half) is 0.609 µM in experiment [1] (setting [5]); 1.52 µM in experiment [2]; 3.44 µM in experiment [3] (setting [5]); 0.078 µM in experiment [4] (Table I, read-out: IC50); 0.078 µM in experiment [4] (Table II, read-out: IC50 VHR).

With `O=C1/C(=C/c2cn(-c3ccccc3)nc2-c2ccc(OCc3ccc(Cl)cc3)cc2)SC(=S)N1CCS(=O)(=O)O` [Compound 10, (Z)-2-[5-({3-[4-(4-chlorobenzyloxy)phenyl]-1-phenyl-1H-pyrazol-4-yl}methylene)-4-oxo-2-thioxothiazolidin-3-yl]ethane sulfonic acid], the IC50 was determined as 0.46 µM in experiment [1] (setting [5]); 0.622 µM in experiment [2] (setting [5]); 2.45 µM in experiment [3]; 0.018 µM in experiment [4] (Table I, read-out: IC50); 0.018 µM in experiment [4] (Table II, read-out: IC50 VHR).

With `O=C1/C(=C/c2cn(-c3ccccc3)nc2-c2ccc(S(=O)(=O)N3CCOCC3)cc2)SC(=S)N1CCS(=O)(=O)O` [Compound 14], the IC50 came to 0.303 µM in experiment [1]; 1.16 µM in experiment [2]; 3.37 µM in experiment [3]; 2.44 µM in experiment [4] (Table I, read-out: IC50); 0.071 µM in experiment [4] (Table II, read-out: IC50 VHR).
